In BindingDB's records for doi:10.7270/Q2GF0RZ3 (Burnham Center For Chemical Genomics, 2010):
pEC50: −log10 of the molar value.

target: G-protein coupled receptor 55 (Homo sapiens, UniProt Q9Y2T6); assay: selective activators of receptor GPR55 – imaging, U2OS cells, beta-arrestin-GFP redistribution, primary screen (AID 1961)
Sequence (Q9Y2T6 whole entry): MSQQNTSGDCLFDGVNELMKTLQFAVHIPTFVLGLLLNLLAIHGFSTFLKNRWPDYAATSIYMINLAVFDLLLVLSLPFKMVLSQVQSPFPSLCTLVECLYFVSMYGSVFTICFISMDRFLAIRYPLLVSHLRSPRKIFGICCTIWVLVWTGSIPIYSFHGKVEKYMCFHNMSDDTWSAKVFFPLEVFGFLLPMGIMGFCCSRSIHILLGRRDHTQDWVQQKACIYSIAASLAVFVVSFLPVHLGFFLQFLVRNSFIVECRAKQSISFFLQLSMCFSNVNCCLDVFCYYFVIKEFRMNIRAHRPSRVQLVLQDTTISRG

| Structure (SMILES) | pEC50 |
| --- | --- |
| COc1ccc(C2c3sc4nc(C)cc(C)c4c3OC(=N)C2C#N)cc1 (configuration not stated) [2-amino-4-(4-methoxyphenyl)-7,9-dimethyl-4H-pyrano[2',3':4,5]thieno[2,3-b]pyridine-3-carbonitrile] | 5.47 |
| C=c1[nH]n(-c2ccc(C(=O)O)cc2)c(=O)c1=Cc1ccc(-c2ccccc2F)o1 [4-((4E)-4-{[5-(2-fluorophenyl)-2-furyl]methylene}-3-methyl-5-oxo-4,5-dihydro-1H-pyrazol-1-yl)benzoic acid] | 4.67 |
| COC1=CC(=Cc2c(-c3ccccc3)[nH]oc2=O)C=C(Cl)C1=O [4-[(Z)-(3-chloro-5-methoxy-4-oxo-1-cyclohexa-2,5-dienylidene)methyl]-3-phenyl-2H-isoxazol-5-one] | 4.49 |
| Cc1ccc(NS(=O)(=O)c2cc([N+](=O)[O-])ccc2N=NCc2sc(N3CCOCC3)nc2-c2ccccc2)c(C)c1 [MLS000408840] | 6.30 |
| CC(C)CN1C(=O)/C(=N\NC(=O)c2cccc(S(=O)(=O)N3CCCCC3)c2)c2ccccc21 [MLS000417389] | 5.32 |
| N#CC1C(=O)NC(c2ccc(-c3cc(Cl)ccc3Cl)o2)N(c2ccccc2)C1=S (configuration not stated) [MLS000592167] | 4.49 |
| N#CC1C(=N)OC2=C(CC/C2=C\c2ccccc2)C1c1ccccc1 (configuration not stated) [SMR000176483] | 4.49 |
